Assay results taken from US20250313635A1, “ANTI-INTEGRIN ANTIBODIES AND USES THEREOF” (Merck Sharp & Dohme LLC, priority 2022, published 2025).
Read-outs that look alike come from different tables or passages of the source.

Experiments:
mouse αvβ1 [1] = target: T1, mouse αvβ1 (Mus musculus, UniProt P09055+P43406); assay: Cell adhesion assay, CHOK1-α5KO-mαvβ1 cells on fibronectin; type: cell-based; conditions: FIG. 11
T1 construct: expressed in transfected cells
Procedure: Cell adhesion assay. For plate preparation, Epic 384-well assay plates (Corning #5040) were washed with OptiMEM™ (Gibco #31985-070) and coated with murine fibronectin (Abcam #ab92784) at a concentration of 0.1 μg/well for CHO-α5KO-mαvβ1 cells; murine vitronectin (Abcam #ab92727) at 0.075 μg/well for CHO-mαvβ3 cells; or murine vitronectin at 0.125 μg/well for CHO-mαvβ5 (all at a volume of 25 μL/well in OptiMEM™), for one hour. Coating solution was then removed by flicking and plates were washed with OptiMEM™ and blocked with 25 μL/well of assay buffer (1% Ovalbumin (Sigma #A5503-10G) in OptiMEM™ containing 1×Pen-Strep (Gibco #15140-148)). A 5-minute baseline reading was taken on a Corning Epica Plate Reader (Model: Epic BT-157900) before removing the assay buffer and adding cells pre-incubated with inhibitors. The Epic™ plate reader detects cellular mass redistribution (adhesion) on the plate surface as a picometer wavelength shift over time. For inhibitor titration preparation: fivefold serial dilutions of small molecule inhibitor MK-0429 or antibody inhibitor Ab-31 were prepared in assay buffer at 4× the final concentration in a 384-well polypropylene plate in a volume of 15 μL per well, starting at a concentration of 800 nM. […]

human αvβ6 = target: T2, human αvβ6 (Homo sapiens, UniProt P06756+P18564); assay: Latent TGFβ activation assay, TMLC / CHOK1-integrin co-culture (PAI-1 luciferase); type: cell-based; conditions: FIG. 5B
T2 construct: expressed in transfected cells
Procedure: (§1) Latent TGFβ activation assay. Transfected mink lung epithelial cell (TMLC) cell line containing the TGFβ responsive PAI-1 promoter driving luciferase expression (Mazzieri et al, Methods Mol. Biol. 142, 13-27 (2000)) and the CHO-K1 human and mouse αvβ×integrin cell lines were grown under optimized growth conditions to 90% confluency. TMLC cells were trypsinized and plated at 25,000 cells/well in 50 μL in Costar clear bottom white walled plates. In a separate plate, 25 μL of serially diluted antibodies at 4×concentration were added to wells containing 25 μL of either 25,000 cells of human or mouse αvβ×cells. After a brief mixing, the 50 μL mixture was transferred to the TMLC cell plates for a total volume of 100 μL and incubated at 37° C. for 16 hours. 100 μL of ONE-Glo kit (#PRE6120) was added to each well and read after three to five minutes on the Envision plate reader.

mouse αvβ1 [2] = target: T1, mouse αvβ1; assay: as above; type: cell-based; conditions: FIG. 5B
Procedure: as §1

human αvβ8 = target: T3, human αvβ8 (Homo sapiens, UniProt P06756+P26012); assay: as above; type: cell-based; conditions: FIG. 5B
T3 construct: expressed in transfected cells
Procedure: as §1

human αvβ1 = target: T4, human αvβ1 (Homo sapiens, UniProt P05556+P06756); assay: as above; type: cell-based; conditions: FIG. 5B
T4 construct: expressed in transfected cells
Procedure: as §1

mouse αvβ6 = target: T5, mouse αvβ6 (Mus musculus, UniProt P43406+Q9Z0T9); assay: as above; type: cell-based; conditions: FIG. 5B
T5 construct: expressed in transfected cells
Procedure: as §1

mαvβ5 = target: T6, mαvβ5 (Mus musculus, UniProt O70309+P43406); assay: Mouse AlphaLISA integrin-ligand blocking assay (vitronectin); type: biochemical; conditions: Table 12; read-out: IC50 Mouse integrin AlphaLISA assays mαvβ5
T6 construct: The full extracellular domains for all α and β integrin subunits; (GGGS)3 linker (C); acidic coiled-coil with cysteine (C); GG-Avitag (C); hexa-histidine tag (C); basic coiled-coil with cysteine (C); made in house; host or cells: Expi293 cells
Procedure: (§2) Integrin AlphaLISA assay. In the AlphaLISA integrin assays, we used a HEPES based buffer (25 mM HEPES pH 7.4, 137 mM NaCl, 1 mM MgCl2, 1 mM MnCl2, 2 mM CaCl2, 2.7 mM KCl, and 0.05% Tween 20). Optimal assay conditions were determined with a titration of the reagents for signal noise ratio (S/N), linear range, etc. For the respective integrins, we used the final concentrations described in Table 9.
(§3) Briefly, the testing antibody (8 μL) was added as a 4×(of Final testing concentration) solution in the HEPES buffer described previously into a 384w AlphaPlate™ (Perkin Elmer #6005350). Then the integrin and ligand were added sequentially as 8×(4 μL each). Plates were sealed and incubated at room temperature for two hours. Then 4×acceptor bead solution ([…]) was added, and the plates were resealed and incubated at room temperature (RT) for one hour. Finally, 4×([…]) donor beads solution was added in a darkened room and incubated for 45 minutes at room temperature. Plates were read on the Envision (Perkin Elmer) in AlphaScreen™ mode within three hours of donor bead addition.

mαvβ3 = target: T7, mαvβ3 (Mus musculus, UniProt O54890+P43406); assay: as above; type: biochemical; conditions: Table 12; read-out: IC50 Mouse integrin AlphaLISA assays mαvβ3
T7 construct: The full extracellular domains for all α and β integrin subunits; (GGGS)3 linker (C); acidic coiled-coil with cysteine (C); GG-Avitag (C); hexa-histidine tag (C); basic coiled-coil with cysteine (C); made in house; host or cells: Expi293 cells
Procedure: as §2, §3

hαvβ1 = target: T8, hαvβ1 (Homo sapiens, UniProt P05556+P06756); assay: Human AlphaLISA integrin-ligand blocking assay (fibronectin); type: biochemical
T8 construct: The full extracellular domains for all α and β integrin subunits; (GGGS)3 linker (C); acidic coiled-coil with cysteine (C); GG-Avitag (C); hexa-histidine tag (C); basic coiled-coil with cysteine (C); made in house; host or cells: Expi293 cells
Procedure: as §2, §3

hα5β1 = target: T9, hα5β1 (Homo sapiens, UniProt P05556+P08648); assay: as above; type: biochemical
T9 construct: The full extracellular domains for all α and β integrin subunits; (GGGS)3 linker (C); acidic coiled-coil with cysteine (C); GG-Avitag (C); hexa-histidine tag (C); basic coiled-coil with cysteine (C); made in house; host or cells: Expi293 cells
Procedure: as §2, §3

[3] = humans; cited from earlier work

T1 sequence (P43406 31-1044): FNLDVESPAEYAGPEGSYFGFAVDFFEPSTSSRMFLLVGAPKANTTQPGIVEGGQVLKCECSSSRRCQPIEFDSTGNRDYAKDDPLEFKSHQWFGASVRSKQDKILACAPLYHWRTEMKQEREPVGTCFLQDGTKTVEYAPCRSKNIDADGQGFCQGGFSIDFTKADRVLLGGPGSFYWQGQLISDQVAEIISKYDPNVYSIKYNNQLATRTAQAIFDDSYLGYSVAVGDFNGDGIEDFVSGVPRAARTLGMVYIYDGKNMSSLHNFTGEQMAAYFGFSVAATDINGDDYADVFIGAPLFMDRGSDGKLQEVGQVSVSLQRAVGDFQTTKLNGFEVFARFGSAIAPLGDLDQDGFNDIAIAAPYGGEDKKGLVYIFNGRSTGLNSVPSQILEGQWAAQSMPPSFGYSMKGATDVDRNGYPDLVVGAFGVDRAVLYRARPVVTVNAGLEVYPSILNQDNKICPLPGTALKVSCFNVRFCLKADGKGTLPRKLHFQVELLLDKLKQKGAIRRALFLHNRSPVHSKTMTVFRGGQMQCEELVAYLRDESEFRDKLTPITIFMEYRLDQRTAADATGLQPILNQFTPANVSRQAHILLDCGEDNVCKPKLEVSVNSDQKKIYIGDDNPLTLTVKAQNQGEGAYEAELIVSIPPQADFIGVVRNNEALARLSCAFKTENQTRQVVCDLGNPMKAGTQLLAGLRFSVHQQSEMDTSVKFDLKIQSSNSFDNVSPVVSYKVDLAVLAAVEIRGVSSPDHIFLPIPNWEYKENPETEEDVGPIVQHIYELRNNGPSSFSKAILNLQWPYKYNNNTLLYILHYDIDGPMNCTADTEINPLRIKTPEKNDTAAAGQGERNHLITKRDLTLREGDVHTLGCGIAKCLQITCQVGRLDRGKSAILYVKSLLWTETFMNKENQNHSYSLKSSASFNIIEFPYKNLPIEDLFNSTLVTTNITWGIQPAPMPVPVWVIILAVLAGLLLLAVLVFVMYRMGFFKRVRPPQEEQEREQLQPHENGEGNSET
T1 sequence (P09055 21-798): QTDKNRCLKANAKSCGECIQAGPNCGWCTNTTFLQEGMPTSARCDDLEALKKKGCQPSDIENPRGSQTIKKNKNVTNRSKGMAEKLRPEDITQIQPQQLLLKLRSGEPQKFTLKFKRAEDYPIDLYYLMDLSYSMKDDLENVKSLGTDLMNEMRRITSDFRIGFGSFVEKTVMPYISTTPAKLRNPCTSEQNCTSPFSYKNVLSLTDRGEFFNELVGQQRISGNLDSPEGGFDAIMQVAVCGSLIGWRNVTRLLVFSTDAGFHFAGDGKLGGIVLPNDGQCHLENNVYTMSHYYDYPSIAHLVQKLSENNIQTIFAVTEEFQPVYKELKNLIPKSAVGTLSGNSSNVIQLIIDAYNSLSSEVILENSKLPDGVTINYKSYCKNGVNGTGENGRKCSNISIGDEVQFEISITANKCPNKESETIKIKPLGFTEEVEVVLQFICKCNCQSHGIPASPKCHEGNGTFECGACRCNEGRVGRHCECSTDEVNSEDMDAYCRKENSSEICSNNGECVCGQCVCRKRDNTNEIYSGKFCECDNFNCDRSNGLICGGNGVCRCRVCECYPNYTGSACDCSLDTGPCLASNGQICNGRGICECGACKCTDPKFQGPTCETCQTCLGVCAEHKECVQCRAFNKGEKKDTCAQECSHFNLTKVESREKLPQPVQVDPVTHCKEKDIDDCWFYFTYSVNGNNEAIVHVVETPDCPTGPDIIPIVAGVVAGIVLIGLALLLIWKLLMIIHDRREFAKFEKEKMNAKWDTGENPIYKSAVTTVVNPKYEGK
T9 sequence (P08648 42-995 limits assumed): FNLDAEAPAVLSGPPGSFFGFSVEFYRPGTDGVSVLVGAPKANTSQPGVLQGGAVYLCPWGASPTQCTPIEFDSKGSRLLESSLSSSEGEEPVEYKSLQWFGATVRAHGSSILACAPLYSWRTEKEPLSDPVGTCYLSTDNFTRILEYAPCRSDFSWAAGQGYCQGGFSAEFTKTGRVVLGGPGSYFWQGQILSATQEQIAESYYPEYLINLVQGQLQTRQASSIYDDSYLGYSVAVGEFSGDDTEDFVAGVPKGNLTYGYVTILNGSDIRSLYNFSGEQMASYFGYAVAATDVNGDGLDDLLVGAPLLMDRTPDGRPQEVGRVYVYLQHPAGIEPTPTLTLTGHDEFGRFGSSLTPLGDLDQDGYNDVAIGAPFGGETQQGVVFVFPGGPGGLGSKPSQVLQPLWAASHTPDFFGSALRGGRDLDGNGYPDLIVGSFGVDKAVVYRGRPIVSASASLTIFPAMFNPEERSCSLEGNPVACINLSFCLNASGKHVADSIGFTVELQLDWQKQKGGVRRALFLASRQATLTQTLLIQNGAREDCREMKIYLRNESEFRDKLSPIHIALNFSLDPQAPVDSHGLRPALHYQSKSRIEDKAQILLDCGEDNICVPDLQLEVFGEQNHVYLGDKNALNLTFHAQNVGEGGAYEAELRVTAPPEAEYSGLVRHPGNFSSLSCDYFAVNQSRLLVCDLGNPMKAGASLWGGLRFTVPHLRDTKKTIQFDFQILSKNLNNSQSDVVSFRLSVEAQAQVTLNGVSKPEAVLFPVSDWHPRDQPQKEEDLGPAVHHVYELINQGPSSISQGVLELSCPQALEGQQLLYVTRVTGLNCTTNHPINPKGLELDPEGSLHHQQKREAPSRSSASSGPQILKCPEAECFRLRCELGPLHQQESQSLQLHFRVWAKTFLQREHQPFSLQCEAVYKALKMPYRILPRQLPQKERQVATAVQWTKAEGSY
T9 sequence (P05556 21-728 limits assumed): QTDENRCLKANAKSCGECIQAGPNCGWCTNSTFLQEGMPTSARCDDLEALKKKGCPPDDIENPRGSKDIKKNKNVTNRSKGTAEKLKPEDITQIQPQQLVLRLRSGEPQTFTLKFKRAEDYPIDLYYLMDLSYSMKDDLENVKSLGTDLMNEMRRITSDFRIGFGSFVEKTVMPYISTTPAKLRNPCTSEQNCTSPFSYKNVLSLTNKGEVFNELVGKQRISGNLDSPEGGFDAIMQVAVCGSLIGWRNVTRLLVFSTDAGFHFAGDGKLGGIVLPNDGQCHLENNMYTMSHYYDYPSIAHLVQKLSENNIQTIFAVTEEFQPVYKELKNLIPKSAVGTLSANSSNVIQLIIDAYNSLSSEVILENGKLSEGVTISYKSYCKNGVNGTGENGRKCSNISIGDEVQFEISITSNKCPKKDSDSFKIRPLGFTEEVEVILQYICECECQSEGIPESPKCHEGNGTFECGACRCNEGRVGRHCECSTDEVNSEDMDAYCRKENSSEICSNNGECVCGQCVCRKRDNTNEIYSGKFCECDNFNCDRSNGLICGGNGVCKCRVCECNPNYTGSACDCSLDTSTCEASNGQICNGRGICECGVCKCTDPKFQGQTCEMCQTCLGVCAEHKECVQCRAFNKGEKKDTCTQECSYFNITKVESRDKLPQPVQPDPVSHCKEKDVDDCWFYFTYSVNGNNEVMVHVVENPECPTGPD
T8 sequence (P06756 31-992 limits assumed): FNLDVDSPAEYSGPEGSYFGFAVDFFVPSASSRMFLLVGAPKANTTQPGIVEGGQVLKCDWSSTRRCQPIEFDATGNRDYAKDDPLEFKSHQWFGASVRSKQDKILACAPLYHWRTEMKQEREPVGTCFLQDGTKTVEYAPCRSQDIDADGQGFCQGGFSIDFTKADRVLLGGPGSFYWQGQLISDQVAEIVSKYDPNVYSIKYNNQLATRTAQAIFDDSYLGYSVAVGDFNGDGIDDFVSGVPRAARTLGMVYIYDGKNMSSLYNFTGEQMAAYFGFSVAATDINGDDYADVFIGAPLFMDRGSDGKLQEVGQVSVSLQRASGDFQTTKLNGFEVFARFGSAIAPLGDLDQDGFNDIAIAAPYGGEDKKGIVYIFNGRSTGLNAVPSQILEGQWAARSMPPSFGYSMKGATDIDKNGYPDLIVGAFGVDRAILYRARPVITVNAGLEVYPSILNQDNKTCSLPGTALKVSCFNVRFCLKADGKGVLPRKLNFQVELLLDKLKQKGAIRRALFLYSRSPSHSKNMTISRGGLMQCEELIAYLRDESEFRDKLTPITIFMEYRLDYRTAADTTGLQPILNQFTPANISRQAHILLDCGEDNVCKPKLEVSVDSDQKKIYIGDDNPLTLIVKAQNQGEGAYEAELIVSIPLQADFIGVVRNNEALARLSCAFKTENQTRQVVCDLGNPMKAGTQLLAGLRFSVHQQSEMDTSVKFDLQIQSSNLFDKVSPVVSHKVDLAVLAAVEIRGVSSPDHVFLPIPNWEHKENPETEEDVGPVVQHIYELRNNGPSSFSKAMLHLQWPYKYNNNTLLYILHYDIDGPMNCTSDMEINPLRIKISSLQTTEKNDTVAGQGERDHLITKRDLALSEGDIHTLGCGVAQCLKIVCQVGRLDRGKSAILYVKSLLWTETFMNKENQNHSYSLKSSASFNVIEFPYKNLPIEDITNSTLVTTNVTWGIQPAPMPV
T8 sequence (P05556 21-728 limits assumed): as the sequence (P05556 21-728 limits assumed) above

adhesion of mouse αvβ1-expressing CHOK1-α5KO cells (mouse αvβ1 [1]): potently reduced
inhibition of latent TGFβ activation, human αvβ6 co-culture (human αvβ6): strong inhibitory effect
inhibition of latent TGFβ activation, mouse αvβ1 co-culture (mouse αvβ1 [2]): strong inhibitory effect
inhibition of latent TGFβ activation, human αvβ8 co-culture (human αvβ8): strong inhibitory effect
inhibition of latent TGFβ activation, human αvβ1 co-culture (human αvβ1): strong inhibitory effect
inhibition of latent TGFβ activation, mouse αvβ6 co-culture (mouse αvβ6): strong inhibitory effect
IC50 (mαvβ5): 48.3 nM
IC50 (mαvβ3): 0.9 nM
IC50 (hαvβ1; FIG. 3D, curve-fitted, read-out: IC50 against human αvβ1, AlphaLISA): 0.46 nM
IC50 (hαvβ1; Table 11, read-out: IC50 Human integrin AlphaLISA assays hαvβ1): 1 nM
IC50 (hα5β1; FIG. 3D, curve-fitted, read-out: IC50 against human αvβ1 (as printed, sixth integrin listed), AlphaLISA): 17.3 nM
IC50 (hα5β1; Table 11, read-out: IC50 Human integrin AlphaLISA assays hα5β1): 26.5 nM
SMILES: COc1ccc([C@H](CC(=O)O)N2CCN(CCCc3ccc4c(n3)NCCC4)C2=O)cn1 [MK-0429, (3S)-3-(6-methoxypyridin-3-yl)-3-[2-oxo-3-[3-(5,6,7,8-tetrahydro-1,8-naphthyridin-2-yl)propyl]imidazolidin-1-yl]propanoic acid]
oral bioavailability [3]: good oral bioavailability
